In patent publication US10532985B2, “Heterocycle and carbocycle derivatives having TRKA inhibitory activity” (Shionogi & Co., Ltd., priority 2014, dated 2020):

How the values were obtained:
[1] = target: T1, human TrkA (Homo sapiens, UniProt P04629); experiment: Test Example 2-2: Human TrkA Inhibition Assay; type: biochemical; conditions: human TrkA inhibition, class symbols A/B/C, read-out: IC50_nM
T1 construct: purchased Lifetechnologies PV3144
Outline: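 Kinase (1 nmol/L) pre-incubated 15 min at room temperature with compound, then FL-peptide 27 (1.5 μmol/L) and ATP ([…]) added for 120 min at 37 °C; EDTA stop. Phosphorylated and unphosphorylated substrate separated by mobility-shift readout; IC50 by logistic regression over 10 concentrations.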

[2] = Test Example 9: Metabolism Stability Test; type: in vitro ADME; conditions: human liver microsomes 0.5 mg protein/mL, 30 minutes, 37° C., 1 mmol/L NADPH
Experimental: Using commercially available pooled human hepatic microsomes, a compound of the present invention was reacted for a constant time, and a remaining rate was calculated by comparing a reacted sample and an unreacted sample, thereby, a degree of metabolism in liver was assessed.
A reaction was performed (oxidative reaction) at 37° C. for 0 minute or 30 minutes in the presence of 1 mmol/L NADPH in 0.2 mL of a buffer (50 mmol/L Tris-HCl pH 7.4, 150 mmol/L potassium chloride, 10 mmol/L magnesium chloride) containing 0.5 mg protein/mL of human liver microsomes. After the reaction, 50 μL of the reaction solution was added to 100 μL of a methanol/acetonitrile=1/1 (v/v), mixed and centrifuged at 3000 rpm for 15 minutes. The compound of the present invention in the supernatant was quantified by LC/MS/MS, and a remaining amount of the compound of the present invention after the reaction was calculated, letting a compound amount at 0 minute reaction time to be 100%.

T1 sequence (P04629 33-796): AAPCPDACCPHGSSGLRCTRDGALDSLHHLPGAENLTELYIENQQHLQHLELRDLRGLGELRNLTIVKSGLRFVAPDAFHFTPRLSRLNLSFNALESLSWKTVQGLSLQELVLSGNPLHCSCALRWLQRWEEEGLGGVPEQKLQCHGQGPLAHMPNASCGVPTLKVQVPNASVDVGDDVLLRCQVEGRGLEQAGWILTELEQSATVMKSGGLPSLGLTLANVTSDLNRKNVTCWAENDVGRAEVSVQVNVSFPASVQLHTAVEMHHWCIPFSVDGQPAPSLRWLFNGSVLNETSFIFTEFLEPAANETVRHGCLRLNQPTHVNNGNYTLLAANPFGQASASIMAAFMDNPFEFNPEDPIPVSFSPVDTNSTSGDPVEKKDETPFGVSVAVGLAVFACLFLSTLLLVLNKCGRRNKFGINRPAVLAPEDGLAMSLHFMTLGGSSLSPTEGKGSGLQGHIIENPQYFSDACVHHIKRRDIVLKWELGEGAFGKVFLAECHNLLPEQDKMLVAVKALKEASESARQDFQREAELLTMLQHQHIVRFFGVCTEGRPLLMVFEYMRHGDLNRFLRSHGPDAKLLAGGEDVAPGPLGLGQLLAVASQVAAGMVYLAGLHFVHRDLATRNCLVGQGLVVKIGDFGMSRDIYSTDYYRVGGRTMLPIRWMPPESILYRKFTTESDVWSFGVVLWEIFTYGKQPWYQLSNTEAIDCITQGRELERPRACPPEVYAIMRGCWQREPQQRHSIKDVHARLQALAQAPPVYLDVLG

## COCCN1C[C@@H](NC(=O)Nc2c(C)c(-c3cnn(C)c3)nn2-c2ccccc2)[C@H](c2ccnc(C#N)c2)C1 (racemic) [Compound I-180]
[1]
  IC50: 100 to 1000 nM
[2]
  remaining amount of compound after reaction: 90%
